Experimental data as given in PubChem BioAssay AID602129 (The Scripps Research Institute Molecular Screening Center, 2011).
pEC50: −log10 of the molar value. Activity calls are given as the source filed them. How the calls were made is not given here.

Molecular target: Mucolipin-3 (Homo sapiens) (UniProt Q8TDD5)
Assay: TRPML3 channel agonist potency, late-stage follow-up, cell-based, fluorescence, dose response, round 3 (AID 602129)
Details: HEK293 TRPML3 cells, calcium fluorescence

Mucolipin-3 (Homo sapiens), sequence (Q8TDD5 whole entry, looked up): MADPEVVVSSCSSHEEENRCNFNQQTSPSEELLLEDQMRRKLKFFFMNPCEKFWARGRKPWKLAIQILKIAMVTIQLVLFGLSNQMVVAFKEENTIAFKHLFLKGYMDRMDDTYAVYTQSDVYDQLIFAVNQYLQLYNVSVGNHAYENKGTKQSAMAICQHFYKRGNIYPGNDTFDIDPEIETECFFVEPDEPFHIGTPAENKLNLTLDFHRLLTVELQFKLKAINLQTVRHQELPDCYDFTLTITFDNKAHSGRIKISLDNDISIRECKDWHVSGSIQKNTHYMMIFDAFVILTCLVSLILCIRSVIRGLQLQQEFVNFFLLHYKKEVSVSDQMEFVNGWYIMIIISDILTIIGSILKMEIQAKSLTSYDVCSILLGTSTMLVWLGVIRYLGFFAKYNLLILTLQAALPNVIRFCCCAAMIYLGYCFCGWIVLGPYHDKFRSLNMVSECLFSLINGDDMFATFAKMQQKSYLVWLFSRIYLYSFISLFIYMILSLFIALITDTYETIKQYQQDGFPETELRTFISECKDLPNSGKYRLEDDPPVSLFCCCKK

| Structure (SMILES) | EC50 | pEC50 |
| --- | --- | --- |
| CCOc1ccc(S(=O)(=O)N2CCOCC2)c2ccccc12 | > 29.9 µM (inactive) | – |
| Cc1onc(-c2ccccc2)c1-c1ccnn1S(=O)(=O)c1ccc(Cl)cc1 | > 29.9 µM (inactive) | – |
| Cc1onc(-c2ccc(Cl)cc2)c1-c1ccn(S(=O)(=O)c2ccc(C(F)(F)F)cc2)n1 | > 29.9 µM (inactive) | – |
| Cc1onc(-c2ccc(Cl)cc2)c1-c1ccn(S(=O)(=O)c2ccccc2)n1 | – | 5.62 |
| Cc1onc(-c2ccc(Cl)cc2)c1-c1ccn(S(=O)(=O)c2cccs2)n1 | > 29.9 µM (inactive) | – |
| CC(C)Oc1ccc(S(=O)(=O)N2CCCCCC2)c2ccccc12 | inactive | – |
| Cc1onc(-c2ccc(Cl)cc2)c1-c1ccn(S(C)(=O)=O)n1 | > 29.9 µM (inactive) | – |
| CCOc1ccc(S(=O)(=O)N2CCCCC2)c2ccccc12 | – | 5.46 |
| Cc1ccccc1S(=O)(=O)n1ccc(-c2c(-c3ccc(Cl)cc3)noc2C)n1 | – | 5.31 |
| COc1ccc(-c2noc(C)c2-c2ccn(S(=O)(=O)c3ccc(C)cc3)n2)cc1 | – | 5.52 |
| Cc1ccc(S(=O)(=O)n2ccc(-c3c(-c4ccccc4)noc3C)n2)cc1 | – | 5.84 |
| COc1ccc(S(=O)(=O)N2CCCCCC2)c2ccccc12 | – | 6.32 |
| COc1ccc(S(=O)(=O)n2ccc(-c3c(-c4ccc(Cl)cc4)noc3C)n2)cc1 | – | 5.42 |
| Cc1onc(-c2ccccc2)c1-c1ccn(S(=O)(=O)c2ccc(Cl)cc2)n1 | > 29.9 µM (inactive) | – |
| Cc1onc(-c2ccc(Cl)cc2)c1-c1ccn(S(=O)(=O)C(F)(F)F)n1 | > 29.9 µM (inactive) | – |
| Cc1onc(-c2ccc(Cl)cc2)c1-c1ccn(S(=O)(=O)c2ccc(Cl)cc2)n1 | inactive | – |
| Cc1onc(-c2ccc(Cl)cc2)c1-c1ccn(S(=O)(=O)c2cccc(C(F)(F)F)c2)n1 | – | 5.48 |

| Structure (SMILES) | EC50 | pEC50 |
| --- | --- | --- |
| CCOc1ccc(S(=O)(=O)N(CC)CC)c2ccccc12 | > 29.9 µM (inactive) | – |
| Cc1onc(-c2ccc(Cl)cc2)c1-c1ccn(S(=O)(=O)c2ccccc2Cl)n1 | – | 5.81 |
| Cc1onc(-c2ccc(Cl)cc2)c1-c1ccn(S(=O)(=O)c2cccc3cccnc23)n1 | > 29.9 µM (inactive) | – |
| CCOc1ccc(S(=O)(=O)N2CCN(c3ccccc3Cl)CC2)c2ccccc12 | > 29.9 µM (inactive) | – |
| Cc1onc(-c2ccc(Cl)cc2)c1-c1ccn(S(=O)(=O)c2cccc(Cl)c2)n1 | – | 5.71 |
| Cc1ccc(S(=O)(=O)n2nccc2-c2c(-c3ccccc3)noc2C)cc1 | > 29.9 µM (inactive) | – |
| CCOc1ccc(S(=O)(=O)NCc2ccncc2)c2ccccc12 | > 29.9 µM (inactive) | – |
| Cc1ccc(S(=O)(=O)n2ccc(-c3c(-c4ccc(F)cc4)noc3C)n2)cc1 | – | 6.17 |
| Cc1onc(-c2ccc(Cl)cc2)c1-c1ccn(S(=O)(=O)c2ccccc2C(F)(F)F)n1 | – | 5.45 |
| CCOc1ccc(S(=O)(=O)NCc2ccc(OC)cc2)c2ccccc12 | > 29.9 µM (inactive) | – |
| CCOc1ccc(S(=O)(=O)N2CCN(C(=O)OC(C)(C)C)CC2)c2ccccc12 | > 29.9 µM (inactive) | – |
| CCCCNS(=O)(=O)c1ccc(OCC)c2ccccc12 | > 29.9 µM (inactive) | – |
| CCOc1ccc(S(=O)(=O)n2ccc(-c3c(-c4ccc(Cl)cc4)noc3C)n2)c2ccccc12 | > 29.9 µM (inactive) | – |
| CCOc1ccc(S(=O)(=O)N2CCCC2)c2ccccc12 | > 29.9 µM (inactive) | – |
| Cc1onc(-c2ccc(Cl)cc2)c1-c1ccnn1S(=O)(=O)c1ccc(Cl)cc1 | > 29.9 µM (inactive) | – |
| Cc1onc(-c2ccc(Cl)cc2)c1-c1ccnn1S(=O)(=O)c1cccc(C(F)(F)F)c1 | > 29.9 µM (inactive) | – |
| CCOc1ccc(S(=O)(=O)N2CCSCC2)c2ccccc12 | > 29.9 µM (inactive) | – |
